≈ marks a conversion by molar mass, not a printed value. Counter-ions that a name gives are not always drawn. Like-named read-outs stand apart in the source and are kept apart here.
Assays:
[1] = system: Aspergillus fumigatus ATCC 28214; assay: In vitro antifungal MIC, microtiter broth dilution; details: for MIC: Aspergillus fumigatus, ATCC28214, 24 h; for MIC values, A. fumigatus: 30°, 24 hours
[2] = system: Candida albicans ATCC 11651; assay: In vitro antifungal MIC, microtiter broth dilution; details: for MIC: Candida albicans, ATCC11651, 24 h; for MIC values, C. albicans: 30°, 24 hours
[3] = system: Candida albicans ATCC 11651; assay: In vivo systemic Candida infection in mice, primary assay; design: species or system Candida albicans; CF-1 female mice; details: for responders at 150 mg/kg / responders at 1 mg/kg/day: Candida albicans, read-out: % Survival
Text: The […] activity of test compounds is based on the percent (%) survival of infected animals receiving test or standard agent compared to that in an infected untreated group (Table 6). The in vivo assays are chronic systemic infections lethal to mice within 7 days post infection, [J. Barnes, et al. Lab Investigation, 49 460-467 (1963), and T. Rogers and E. Balish, Infection and Immunity, 14 33-38 (1976)].
Candida albicans ATCC 11651, from a frozen stock culture (10^9 organisms/ml) maintained at -70°, is diluted in saline to 1×10^7 organisms/ml and 0.2 ml inoculated intravenously (caudal vein) into 20.0 gm CF-1 female mice (Charles River).
Test compounds are routinely solubilized in 0.25% (w/v) methylcellulose (Methocel®) but for those compounds difficult to solubilize 10% (w/v) Emulophor® (EL620 GAF Corp.) is used. The standard antifungal agents, amphotericin B (Fungizone®) in water and ketoconazole (Nizoral®) in Methocel®, are administered at 1.0 mg/kg/day and 150 mg/kg/day, respectively.
In a primary assay, mice (10 per group) are infected with C. albicans, and receive test compounds at 50 or 150 mg/kg/day via the subcutaneous route. Animals are dosed with the test compound at 1 and 6 hour post-infection and then once daily for the next three days. Survival of mice in each group is recorded for 21 days.
Compounds which protect ≥70% of the infected animals for 14 days at a dose 150 mg/kg/day or less are viewed as active.

Venturia inaequalis = assay: Example A apple scab; type: in vivo; details: 20 PPM, read-out: disease control rating, Ex. A
Protocol: (§1) The test compounds were dissolved in acetone in an amount equal to 6% of the final volume and then suspended at a concentration of 100 or 20 ppm in purified water containing 250 ppm of the surfactant TREM 014 (polyhydric alcohol esters). This suspension was sprayed to the point of run-off on apple seedings.

Puccinia recondita = assay: Example G wheat leaf rust; type: in vivo; details: 20 PPM, read-out: disease control rating, Ex. G
Rhizoctonia solani = assay: Example F rice sheath blight; type: in vivo; details: Rhizoctonia solani, 144 h, read-out: disease control rating, Ex. F
Protocol: as §1, with “rice seedlings.” for “apple seedings.”

Pyricularia oryzae = assay: whole plant or invertebrate; type: in vivo; details: Pyricularia oryzae, 120 h, read-out: disease control rating, Ex. E, 100 PPM
[4] = system: Erysiphe graminis f. sp. tritici; assay: Example D wheat powdery mildew; type: in vivo; details: Blumeria graminis, 144 h; 20 PPM; read-out: disease control rating, Ex. D
Protocol: as §1, with “wheat seedlings.” for “apple seedings.”

[5] = system: Cercosporidium personatum; assay: Example B Peanut Late Leafspot; type: in vivo; details: Nothopassalora personata; 20 PPM; read-out: disease control rating, Ex. B
Protocol: as §1, with “peanut seedlings.” for “apple seedings.”

Botrytis cinerea = assay: Example C bean grey mold; type: in vivo; details: Botrytis cinerea, 24 h, read-out: disease control rating, Ex. C
Protocol: as §1, with “broad bean seedlings.” for “apple seedings.”

[6] = read-out: MIC values, A. fumigatus, 30°, 24 hours
[7] = read-out: MIC values, C. albicans, 30°, 24 hours
[8] = ATCC11651, 168 h, 150 mg/kg per day, day 7
[9] = ATCC11651, 336 h, 150 mg/kg per day, day 14
[10] = ATCC11651, 504 h, 150 mg/kg per day, day 21

SMILES: C=C(c1ccc(F)cc1)C(O)(c1ccc(F)cc1)C(F)(F)n1cncn1 (stereo not drawn) [Example 1260]
- MIC [1, 6]: > 100 µg/mL
- MIC [2, 7]: 0.8 µg/mL (≈ 2.2 µM)

SMILES: C=C(c1ccc(F)cc1)C(O)(Cn1cncn1)c1ccc(F)cc1 (single isomer, unassigned) [1277 HCl salt]
- MIC values, A. fumigatus [1]: 3.2 µg/mL
- MIC values, C. albicans [2]: 0.03 µg/mL

SMILES: CC(=O)N1CCN(c2ccc(OCC3COC(Cn4ccnc4)(c4ccc(Cl)cc4Cl)O3)cc2)CC1 (stereo not drawn) [Ketoconazole, reference compound]
- MIC [1, 6]: 11 ± 5 µg/mL (≈ 20.7 µM)
- MIC [2, 7]: ≤ 0.1 µg/mL
- responders at 150 mg/kg [3, 8]: 100%
- responders at 150 mg/kg [3, 9]: 80%
- responders at 150 mg/kg [3, 10]: 50%

SMILES: C=C(c1ccc(C(C)(C)C)cc1)C(O)(Cn1cncn1)c1ccc(F)cc1 (stereo not drawn) [Example 114]
- MIC [1, 6]: 50 µg/mL (≈ 137 µM)
- MIC [2, 7]: 0.4 µg/mL (≈ 1.09 µM)
- responders at 150 mg/kg [3, 8]: 70%
- responders at 150 mg/kg [3, 9]: 10%
- responders at 150 mg/kg [3, 10]: 10%

SMILES: C=C(c1ccc(Cl)cc1)C(O)(Cn1cncn1)c1cccc(C(F)(F)F)c1 (stereo not drawn) [Example 685]
- pest or weed control at 20 ppm (Venturia inaequalis): 57%
- MIC [1, 6]: 100 µg/mL (≈ 254 µM)
- pest or weed control at 20 ppm (Puccinia recondita): 100%
- pest or weed control at 20 ppm (Rhizoctonia solani; 20 PPM): 15%
- pest or weed control at 100 ppm (Rhizoctonia solani; 100 PPM): 29%
- pest or weed control at 100 ppm (Pyricularia oryzae): 0%
- pest or weed control at 20 ppm [4]: 67%
- pest or weed control at 20 ppm [5]: 66%
- pest or weed control at 20 ppm (Botrytis cinerea; 20 PPM): 28%
- pest or weed control at 100 ppm (Botrytis cinerea; 100 PPM): 0%
- MIC [2, 7]: 0.8 µg/mL (≈ 2.03 µM)
- responders at 150 mg/kg [3, 8]: 30%
- responders at 150 mg/kg [3, 9]: 10%
- responders at 150 mg/kg [3, 10]: 0%

SMILES: C=C(c1ccccc1Cl)C(O)(Cn1cncn1)c1ccc(Cl)cc1 (stereo not drawn) [34 salt]
- % Survival ([3]; 150 mg/kg per day, day 7): 100%
- % Survival ([3]; 150 mg/kg per day, day 14): 100%
- % Survival ([3]; 150 mg/kg per day, day 21): 100%

SMILES: C=C(c1ccc(Br)cc1)C(O)(Cn1cncn1)c1ccc(F)cc1 (stereo not drawn) [Example 85]
- MIC [1, 6]: 12.5 µg/mL (≈ 32.2 µM)
- MIC [2, 7]: ≤ 0.4 µg/mL
- responders at 150 mg/kg [3, 8]: 100%
- responders at 150 mg/kg [3, 9]: 80%
- responders at 150 mg/kg [3, 10]: 70%

SMILES: C=C(c1ccccc1)C(O)(Cn1cncn1)C(F)(F)C(F)(F)C(F)(F)C(F)(F)F (stereo not drawn) [Example 55]
- responders at 150 mg/kg ([3]; ATCC11651, 168 h): 100%
- responders at 150 mg/kg ([3]; ATCC11651, 336 h): 70%
- responders at 150 mg/kg ([3]; ATCC11651, 504 h): 50%

SMILES: C=C(c1ccc(Cl)cc1)C(O)(Cn1cncn1)c1ccc(Cl)cc1Cl (stereo not drawn) [26 HCl salt]
- MIC values, A. fumigatus [1]: 0.4 µg/mL
- MIC values, C. albicans [2]: 0.03 µg/mL

SMILES: C[C@@H]1[C@H](O)[C@@H](C)/C=C/C=C/C=C/C=C/C=C/C=C/C=C/[C@H](O[C@@H]2O[C@H](C)[C@@H](O)[C@H](N)[C@@H]2O)C[C@@H]2O[C@](O)(C[C@@H](O)C[C@@H](O)[C@H](O)CC[C@@H](O)C[C@@H](O)CC(=O)O[C@H]1C)C[C@H](O)[C@H]2C(=O)O [Amphotericin B, reference compound]
- MIC ([1]; read-out: MIC values, A. fumigatus): 1.4 ± 0.5 µg/mL (≈ 1.52 µM)
- MIC ([2]; read-out: MIC values, C. albicans): 0.33 ± 0.2 µg/mL (≈ 0.357 µM)
- responders at 1 mg/kg/day ([3]; ATCC11651, 168 h): 100%
- responders at 1 mg/kg/day ([3]; ATCC11651, 336 h): 100%
- responders at 1 mg/kg/day ([3]; ATCC11651, 504 h): 100%

SMILES: C=C(c1ccccc1Cl)C(O)(Cn1cncn1)c1ccc(F)cc1F (stereo not drawn) [35 salt]
- % Survival ([3]; 150 mg/kg per day, day 7): 100%
- % Survival ([3]; 150 mg/kg per day, day 14): 100%
- % Survival ([3]; 150 mg/kg per day, day 21): 70%

SMILES: C=C(c1ccc(F)cc1)C(O)(Cn1cncn1)c1ccncc1 (stereo not drawn) [Example 699]
- MIC [1, 6]: 100 µg/mL (≈ 322 µM)
- MIC [2, 7]: 50 µg/mL (≈ 161 µM)
